In patent publication US20180099931A1 (AbbVie S.à.r.l., priority 2016, published 2018):
Like-named read-outs stand apart in the source and are kept apart here.

Biological target: T1, F508delCFTR (Homo sapiens, UniProt P13569, DEL508-508)
T1 construct: expressed in transfected cells; host or cells: CFBE41o- human lung-derived epithelial cells (CFBE4lo-F508delCFTR-HRP), doxycycline-inducible
Assay: Cell Surface Expression-Horse Radish Peroxidase (CSE-HRP) Assay;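 on Maximum % activity (with co-corrector): co-corrector and positive control are both the same reference corrector at 2 µM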;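 on Maximum % activity (without co-corrector): percent of the 2 µM on-plate positive control corrector response above DMSO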
Type: cell-based
Conditions: for Emax: read-out: Maximum % activity (without co-corrector)

[1] = test compound without co-corrector, maximum at any tested concentration, normalized to on-plate positive control
[2] = test compound without co-corrector, read-out: EC50 (without co-corrector)
[3] = with co-corrector (2 μM of 3-[(2R,4R)-4-({[1-(2,2-difluoro-1,3-benzodioxol-5-yl)cyclopropyl]carbonyl}amino)-7-methoxy-3,4-dihydro-2H-chromen-2-yl]benzoic acid), read-out: EC50 (with co-corrector)
[4] = with co-corrector (2 μM of 3-[(2R,4R)-4-({[1-(2,2-difluoro-1,3-benzodioxol-5-yl)cyclopropyl]carbonyl}amino)-7-methoxy-3,4-dihydro-2H-chromen-2-yl]benzoic acid), maximum at any tested concentration, normalized to on-plate positive control
[5] = with co-corrector (2 μM), maximum at any tested concentration, normalized to on-plate positive control
[6] = without co-corrector, maximum at any tested concentration, normalized to on-plate positive control
[7] = CSE-HRP, test compound without co-corrector, read-out: EC50 (without co-corrector)
[8] = CSE-HRP, with co-corrector (2 μM of 3-[(2R,4R)-4-({[1-(2,2-difluoro-1,3-benzodioxol-5-yl)cyclopropyl]carbonyl}amino)-7-methoxy-3,4-dihydro-2H-chromen-2-yl]benzoic acid), read-out: EC50 (with co-corrector)
[9] = CSE-HRP, with co-corrector (2 μM), maximum at any tested concentration, normalized to on-plate positive control
[10] = CSE-HRP, without co-corrector, maximum at any tested concentration, normalized to on-plate positive control

T1 sequence (P13569 with tags, fused parts or gaps DEL508-508): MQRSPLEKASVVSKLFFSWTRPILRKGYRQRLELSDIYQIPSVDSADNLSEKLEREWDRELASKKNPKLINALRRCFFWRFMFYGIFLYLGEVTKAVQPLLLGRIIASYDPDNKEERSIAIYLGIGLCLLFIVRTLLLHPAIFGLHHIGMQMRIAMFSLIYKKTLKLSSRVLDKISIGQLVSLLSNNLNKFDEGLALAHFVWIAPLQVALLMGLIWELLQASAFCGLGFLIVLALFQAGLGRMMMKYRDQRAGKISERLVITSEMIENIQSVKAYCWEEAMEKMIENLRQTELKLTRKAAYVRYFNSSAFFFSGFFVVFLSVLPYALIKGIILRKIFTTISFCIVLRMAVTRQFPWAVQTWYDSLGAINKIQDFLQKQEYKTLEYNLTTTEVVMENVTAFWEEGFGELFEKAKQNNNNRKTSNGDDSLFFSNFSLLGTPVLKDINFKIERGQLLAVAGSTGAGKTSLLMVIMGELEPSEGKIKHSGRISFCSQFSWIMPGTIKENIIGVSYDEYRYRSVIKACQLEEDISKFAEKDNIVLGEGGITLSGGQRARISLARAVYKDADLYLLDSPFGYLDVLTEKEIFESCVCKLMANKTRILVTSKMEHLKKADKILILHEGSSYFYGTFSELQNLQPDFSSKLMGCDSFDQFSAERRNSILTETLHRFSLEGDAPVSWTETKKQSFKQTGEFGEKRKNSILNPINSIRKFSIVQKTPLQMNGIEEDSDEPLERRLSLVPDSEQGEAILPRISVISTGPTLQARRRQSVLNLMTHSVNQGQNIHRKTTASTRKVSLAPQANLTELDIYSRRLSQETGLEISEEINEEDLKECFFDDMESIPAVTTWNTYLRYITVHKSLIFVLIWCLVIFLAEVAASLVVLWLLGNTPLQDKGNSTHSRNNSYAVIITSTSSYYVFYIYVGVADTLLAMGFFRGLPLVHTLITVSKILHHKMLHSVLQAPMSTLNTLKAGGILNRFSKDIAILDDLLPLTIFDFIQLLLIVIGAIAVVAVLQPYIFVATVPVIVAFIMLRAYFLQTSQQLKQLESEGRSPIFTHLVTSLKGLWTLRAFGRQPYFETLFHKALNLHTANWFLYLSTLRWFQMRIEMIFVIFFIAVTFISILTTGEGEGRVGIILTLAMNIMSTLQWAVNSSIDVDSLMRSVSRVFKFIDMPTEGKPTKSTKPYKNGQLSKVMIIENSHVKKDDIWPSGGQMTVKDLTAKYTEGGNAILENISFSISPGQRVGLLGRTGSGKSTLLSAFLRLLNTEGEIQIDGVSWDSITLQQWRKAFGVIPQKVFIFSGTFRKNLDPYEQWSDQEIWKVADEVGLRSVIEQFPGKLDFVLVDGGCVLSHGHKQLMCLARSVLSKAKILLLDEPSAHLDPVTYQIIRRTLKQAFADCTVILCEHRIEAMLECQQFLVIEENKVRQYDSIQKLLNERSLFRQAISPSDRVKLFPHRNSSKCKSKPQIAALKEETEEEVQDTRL

SMILES	EC50 [2] [µM]	EC50 [3] [µM]	Emax [1] [%]	Maximum % activity (with co-corrector) [4]	Maximum % activity (with co-corrector) [5]	EC50 [7] [µM]	EC50 [8] [µM]	Maximum % activity (with co-corrector) [9]	Emax [10] [%]	also measured
COc1ccc(C(C)(C)C)cc1CN[C@H]1[C@H](C(C)(C)C)[C@@H](C(=O)O)N(C(=O)C2CCc3ccc(F)cc3O2)[C@H]1c1cccnc1N(C)C (single isomer, unassigned) [II-453]	> 10	< 1	–	–	–	–	–	–	–	Maximum % activity (without co-corrector) [1]: + (<100); Maximum % activity (with co-corrector) (with co-corrector (2 μM of 3-[(2R,4R)-4-({[1-(2,2-difluoro-1,3-benzodioxol-5-yl)cyclopropyl]carbonyl}amino)-7-methoxy-3,4-dihydro-2H-chromen-2-yl]benzoic acid), maximum at any tested concentration, normalized to on-plate positive control, 2 µM): ++ (≥150 and <350)
COc1ccc(C(C)(C)C)cc1CN[C@H]1[C@H](C(C)(C)C)[C@@H](C(=O)O)N(C(=O)[C@@H]2C[C@H]3CC[C@@H]2O3)[C@H]1c1cccnc1OC (relative stereo) [II-522]	1 to 10	1 to 10	< 100	+++ (≥350)	–	–	–	–	–	–
COc1ccc(C(C)(C)C)cc1CN[C@H]1[C@H](C(C)(C)C)[C@@H](C(=O)O)N(C(=O)[C@@H]2CCCO2)[C@H]1c1ccccc1C1CC1 [Example 108, (2S,3S,4S,5S)-3-tert-butyl-4-{[(5-tert-butyl-2-methoxyphenyl)methyl]amino}-5-(2-cyclopropylphenyl)-1-[(2S)-oxolane-2-carbonyl]pyrrolidine-2-carboxylic acid]	1 to 10	1 to 10	–	–	+++ (≥350)	–	–	–	–	Emax [6]: > 200%
COc1ccc(Cl)cc1CN[C@@H]1[C@@H](C(C)(C)C)[C@H](C(=O)O)N(C(=O)C2COCCO2)[C@@H]1c1ccccc1 (mixture of isomers) [II-86]	–	–	–	–	–	1 to 10	1 to 10	++ (≥150 and <350)	< 100	–
COc1ncc(C2CC2)cc1CN[C@H]1[C@H](C(C)(C)C)[C@@H](C(=O)O)N(C(=O)[C@@H]2CCCO2)[C@H]1c1ccccc1Br [Example I-293]	–	–	–	–	–	1 to 10	1 to 10	+++ (≥350)	> 200	–
CC(C)(C)[C@@H]1[C@@H](NCc2cc(Cl)ccc2OC(F)(F)F)[C@@H](c2ccccc2)N(C(=O)C2CCCCC2)[C@H]1C(=O)O (racemic) [II-75]	–	–	–	–	–	< 1	1 to 10	++ (≥150 and <350)	< 100	–
COC(C)(C)[C@@H]1[C@@H](Nc2cc(C(F)(F)F)cc(C)n2)[C@@H](c2ccccc2)N(C(=O)C2CCCCC2)[C@H]1C(=O)O (racemic) [Example 5, rac-(2R,3R,4R,5R)-1-(cyclohexanecarbonyl)-3-(2-methoxypropan-2-yl)-4-{[6-methyl-4-(trifluoromethyl)pyridin-2-yl]amino}-5-phenylpyrrolidine-2-carboxylic acid]	1 to 10	1 to 10	–	–	+++ (≥350)	–	–	–	–	Emax [6]: < 100%
COc1ncc(C2CCC2)cc1CN[C@H]1[C@H](C(C)(C)C)[C@@H](C(=O)O)N(C(=O)C2Cc3ccccc3CO2)[C@H]1c1ccccc1 (some centres unmarked) [Example I-206]	1 to 10	1 to 10	–	–	+++ (≥350)	–	–	–	–	Emax [6]: 100 to 200%
CC(C)OC(=O)N1[C@H](C(=O)O)[C@@H](C(C)(C)C)[C@H](NCC2CCCC(C(F)(F)F)C2)[C@@H]1c1ccccc1 (some centres unmarked) [II-584]	1 to 10	1 to 10	< 100	++ (≥150 and <350)	–	–	–	–	–	–
COc1cc(C(F)(F)F)ccc1CN[C@H]1[C@H](C(C)(C)C)[C@@H](C(=O)O)N(C(=O)C2CCCC(F)(F)C2)[C@H]1c1cccnc1OC (relative stereo) [Example I-257]	–	–	–	–	–	1 to 10	< 1	+++ (≥350)	100 to 200	–
COc1ccc(C(F)(F)F)cc1CN[C@H]1[C@H](C(C)(C)C)[C@@H](C(=O)O)N(C(=O)C2CC3CC3C2)[C@H]1c1ccccc1 (some centres unmarked) [Example I-162]	1 to 10	1 to 10	–	–	+++ (≥350)	–	–	–	–	Emax [6]: 100 to 200%
COc1cc(Cl)ccc1CN[C@H]1[C@H](C(C)(C)C)[C@@H](C(=O)O)N(C(=O)C2CCCCC2)[C@H]1c1cccnc1OC [II-91]	–	–	–	–	–	1 to 10	1 to 10	+++ (≥350)	100 to 200	–
COc1ccc(C(C)(C)C)cc1CN[C@H]1[C@H](C(C)(C)C)[C@@H](C(=O)O)N(C(=O)[C@H]2[C@H](C(F)(F)F)[C@H]3CC[C@@H]2O3)[C@H]1c1ccccc1 (relative stereo) [II-506]	1 to 10	< 1	> 200	+++ (≥350)	–	–	–	–	–	–
COc1ccc(C(C)(C)C)cc1CN[C@H]1[C@H](C(C)(C)C)[C@@H](C(=O)O)N(C(=O)[C@H](C)c2ccccc2)[C@H]1c1ccccc1 [II-315]	–	–	–	–	–	< 1	< 1	+++ (≥350)	> 200	–
C=CCCOC(=O)N1[C@H](C(=O)O)[C@@H](C(C)(C)C)[C@H](NCc2cc(C(C)(C)C)ccc2OC)[C@@H]1c1ccccc1 [II-387]	1 to 10	1 to 10	> 200	+++ (≥350)	–	–	–	–	–	–
COc1ccc(Br)cc1CN[C@H]1[C@H](C(C)(C)C)[C@@H](C(=O)O)N(C(=O)OC(C)C)[C@H]1c1ccccc1 [II-171]	–	–	–	–	–	1 to 10	1 to 10	+++ (≥350)	> 200	–
COc1ccc(C(C)(C)C)cc1CN[C@H]1[C@H](C(C)(C)C)[C@@H](C(=O)O)N(C(=O)C(C)Oc2cccc(F)c2)[C@H]1c1ccccc1 (some centres unmarked) [II-305]	–	–	–	–	–	< 1	< 1	+++ (≥350)	100 to 200	–
COc1ccc(C(C)(C)C)cc1CN[C@H]1[C@H](C(C)(C)C)[C@@H](C(=O)O)N(C(=O)c2cnn(C(C)(C)C)c2C(F)(F)F)[C@H]1c1ccccc1 [II-360]	1 to 10	< 1	100 to 200	+++ (≥350)	–	–	–	–	–	–
COc1cc(C(F)(F)F)ccc1CN[C@H]1[C@H](C(C)(C)C)[C@@H](C(=O)O)N(C(=O)OC(C)C)[C@H]1c1cccnc1N1CCC1 [Example I-275]	–	–	–	–	–	1 to 10	1 to 10	+++ (≥350)	> 200	–
COc1ccc(C(C)(C)C)cc1CN[C@H]1[C@H](C(C)(C)C)[C@@H](C(=O)O)N(C(=O)C2C3CCCC32)[C@H]1c1cccnc1N(C)C (some centres unmarked) [Example I-201]	1 to 10	< 1	–	–	+++ (≥350)	–	–	–	–	Emax [6]: > 200%

Continued, in another order:

EC50 [2] [µM]	EC50 [3] [µM]	Emax [1] [%]	Maximum % activity (with co-corrector) [4]	Maximum % activity (with co-corrector) [5]	EC50 [7] [µM]	EC50 [8] [µM]	Maximum % activity (with co-corrector) [9]	Emax [10] [%]	SMILES	also measured
> 10	1 to 10	< 100	+ (<150)	–	–	–	–	–	CC(C)(C)[C@@H]1[C@@H](NCc2cc(C(F)(F)F)ccc2OCCCS(C)(=O)=O)[C@@H](c2ccccc2)N(C(=O)C2CCCCC2)[C@H]1C(=O)O (racemic) [III-84]	–
> 10	1 to 10	< 100	–	++ (≥150 and <350)	–	–	–	–	CC(C)(C)[C@H]1[C@H](NCc2ccc(C(F)(F)F)cc2F)[C@H](c2ccccc2)N(C(=O)C2CCCCC2)[C@@H]1C(=O)O [III-136]	–
> 10	> 10	< 100	–	+ (<150)	–	–	–	–	CC(C)(C)[C@H]1[C@H](Nc2nc(Nc3ccccc3)ccc2C#N)[C@H](c2ccccc2)N(C(=O)C2CCCCC2)[C@@H]1C(=O)O [III-150]	–
1 to 10	1 to 10	> 200	–	+++ (≥350)	–	–	–	–	COc1cc2c(cc1CN[C@H]1[C@H](C(C)(C)C)[C@@H](C(=O)O)N(C(=O)OC(C)C)[C@H]1c1ccccc1)CCC2 [III-226]	–
1 to 10	1 to 10	100 to 200	+++ (≥350)	–	–	–	–	–	COc1ccc(C(F)(F)F)cc1CN[C@@H]1[C@@H](C(C)(C)C)[C@H](C(=O)O)N(C(=O)C2CCCCC2)[C@@H]1c1cccnc1N(C)C (racemic) [III-41]	–
1 to 10	1 to 10	< 100	++ (≥150 and <350)	–	–	–	–	–	COc1ccccc1[C@@H]1[C@H](NCc2cccc3c2OC(F)(F)O3)[C@@H](C(C)(C)C)[C@H](C(=O)O)N1C(=O)C1CCCCC1 (racemic) [III-45]	–
> 10	1 to 10	< 100	–	++ (≥150 and <350)	–	–	–	–	COc1ncc(C(F)(F)F)cc1N[C@H]1[C@H](C(C)(C)C)[C@@H](C(=O)O)N(C(=O)[C@H]2CCCC[C@@H]2C(F)(F)F)[C@H]1c1cccnc1N(C)C [III-212]	–
1 to 10	1 to 10	< 100	++ (≥150 and <350)	–	–	–	–	–	COc1ccc(OC)c(CN[C@@H]2[C@@H](C(C)(C)C)[C@H](C(=O)O)N(C(=O)C3CCCCC3)[C@@H]2c2ccccc2)c1 (racemic) [III-11]	–
< 1	< 1	100 to 200	–	+++ (≥350)	–	–	–	–	COc1ncc(C2CCC2)cc1CN[C@H]1[C@H](C(C)(C)C)[C@@H](C(=O)O)N(C(=O)C2CCCCC2C(F)(F)F)[C@H]1c1ccccc1 (some centres unmarked) [III-214]	–
